From patent US5808109A, “Compounds that inhibit complement and/or suppress immune activity” (T Cell Sciences, Inc., priority 1995, dated 1998) come the findings set out here.

Molecules are shown by their SMILES. Where two headings read alike, the source gives them in different places.

One series concerns C5a production. As to the kind of experiment: Inhibition of C5a production in human serum (aggregated IgG, RIA). In kind it is biochemical. Particulars: concentration inhibiting C5a production 50% relative to control. Here is the method:
The ability to inhibit complement was tested by assaying for specific inhibition of C3a and C5a production. For all experiments, a single human serum pool, to be used as a source of complement, was aliquoted and stored frozen at -70° C. Human IgG was heat-aggregated, aliquoted, and stored frozen at -70° C. For each experiment, serum aliquots were equilibrated at 37° C. with varying concentrations of the compounds tested. The classical complement pathway was initiated by the addition of aggregated human IgG. Control samples containing no IgG were always included. After a fixed reaction time of 10 minutes (determined in an earlier time-course study to provide a convenient time interval during which the production of C5a or C3a is nearly complete, i.e., greater than 90%), the levels of the released complement peptides (C5a or C3a) were determined by radioimmunoassay using commercially available radioimmunoassay (RIA) kits (C5a RIA, UpJohn Cat. No. 3250-02; C3a RIA, UpJohn Cat. No. 3245-01; C5a RIA, Amersham Cat. No. RPA.520; C3a RIA, Amersham RPA.518).
Since a competitive immunoassay was used, complement peptide (C5a and C3a) concentrations varied inversely with the counts. The Counts Bound (CB) for a sample was defined as the total counts (in counts per minute, cpm) measured in the pellet minus the counts measured in a nonspecific binding (NSB) control. The NSB control was a sample containing only tracer peptide (^125 I-labelled) and second precipitating antiserum; it contained no C5a- or C3a-specific antiserum.
The y-axis in FIG. 2 represents the fraction inhibition. The fraction inhibition is equal to the Counts Bound (CB) for a "sample," less the CB in the "sample with no added compound," divided by the CB for the "no IgG control" less the CB in the "sample with no added compound." [formula]
FIG. 2 is representative of the data plots obtained from the assays described above.

In a further series the test system is human complement. Put plainly: Inhibition of complement-mediated hemolysis, human serum, sensitized sheep erythrocytes. In kind it is biochemical. As for the experimental part:
The ability to inhibit complement was also tested by assaying for inhibition of complement-mediated red cell lysis (hemolysis). The inhibition of hemolysis was determined as a function of compound concentration. The compounds to be tested were diluted in 0.1M Hepes buffer (0.15N NaCl, pH 7.4), and 50 μl were added to each well of a V-bottom microtiter plate. Human serum, used as the complement source, was diluted 1 to 500 in Hepes buffer, and 50 μl were added to each well. Next, commercially available sheep erythrocytes with anti-sheep antibody (Diamedix Cat. No. 789-001) were used as received and added at 100 μl/well to initiate the complement pathway leading to hemolysis. The plate was incubated for 60 minutes at 37° C. and then centrifuged at 500×g for 10 minutes. The supernatants were removed and placed in a flat-bottom microtiter plate. The extent of hemolysis was measured as a function of the sample absorbance at 410 nm. The maximal absorbance (corresponding to maximal hemolysis), Amax, was obtained from the absorbance value of an erythrocyte sample containing only human serum, AS, less the absorbance of a sample containing only the red cells, A0. Thus, Amax =AS -A0. The difference between the absorbance of an erythrocyte sample containing both human serum and inhibitive compound, and the absorbance of a cell sample containing inhibitive compound only, was defined as Asample. The inhibition, IH, was expressed as the fraction (Amax -Asample)/Amax, and IH50 was defined as the concentration of inhibitive compound required to produce a value of IH=1/2.
The 4 substituted spirobenzofuran compounds of example 7 and the disubstituted spirobenzofuran compounds of example 8 were tested for their capacity to inhibit complement-mediated lysis of sheep red blood cells (SRBC) as described in Section 6.6.2 supra with the modification that the human serum used as the complement source was diluted to 1 to 100 in Hepes buffer, instead of […]. The results of the hemolysis assays are shown in FIG. 8 and Tables XI and XII.

Series [1] in a line: Viability of effector cells by trypan blue exclusion. In kind it is cell-based. As to conditions: human, peripheral blood mononuclear cells. As for the experimental part: where EXP (experimental value) was obtained using effector and target cells; SR (the spontaneous release) was obtained from target cells incubated with media alone; TOTAL release was obtained by hypotonic lysis in water; and B represents instrumental background. Means were calculated from quadruplicate wells and the standard deviations never exceeded 10%. Viability of the effector cells incubated with the test compound was determined by trypan blue exclusion.

For series [2], the system named is human peripheral blood lymphocytes (PBL). Put plainly: Inhibition of proliferation of peripheral blood lymphocytes, 3H-thymidine incorporation. In kind it is cell-based. Particulars: Lymphocyte. As for the experimental part:
The proliferation of human peripheral blood lymphocytes (PBL) in response to phytohemagglutinin (PHA, Well-come) or anti-CD3 monoclonal antibody (OKT-3, Ortho) was assessed by the incorporation of ^3 H-thymidine. Compound 11a was diluted in culture media to the desired concentrations, human PBL were added to a final concentration of 10^6 cells/ml, and then either PHA (Wellcome) or anti-CD3 (OKT3, Ortho) antibody (final concentration, […]) was added to initiate proliferation. The final volume per sample was 100 μl. The cells were incubated for 72 hours after stimulation, pulsed with 1 μCi ^3 H-thymidine per sample for 4 hours, harvested, and counted in a scintillation counter. […] Because cell viability was unaffected by the presence of 11a (see supra), the inhibition apparently was not due to cytotoxic effects.

Series [3] deals with Chinese hamster ovary (CHO) cells. Put plainly: CHO cell proliferation, 3H-thymidine incorporation. In kind it is cell-based. As for the experimental part:
Non-confluent CHO cells were allowed to proliferate for 4 hours in a 96-well plate at a volume of 50 μl per well in the absence or presence of compound 11a at a concentration of 1.8 mM. The cells were pulsed with 0.5 μCi of ^3 H-thymidine per sample for 4 hours, harvested, and the amount of incorporated ^3 H-thymidine was determined by scintillation counting. The CHO cells allowed to proliferate in the absence of added compound yielded a value of 57025 (±7530) CPM. The value for the sample grown in the presence of 11a was 52549 (±6272) CPM.
On the technique in general: Dividing cells build labelled thymidine or BrdU into new DNA.

Series [4] concerns human peripheral blood lymphocytes (PBL). As to the kind of experiment: Inhibition of proliferation of peripheral blood lymphocytes, 3H-thymidine incorporation. In kind it is cell-based. Particulars: without stimulant, concentration ranges used in the proliferation assay.

In the case of `COc1ccc(C(=O)O)c2c1CC1(CCCCC1)O2` [Compound 11a, 7-carboxy-4-methoxyspiro[benzofuran-2(3H)-cyclohexane]], the IC50 in the series with C5a production is 5000 µM; with human complement (Table VII, human serum, read-out: IHO50) it was 1330 µM; in the series with human complement (Table XI, human serum diluted 1 to 100, read-out: IH50 Mean), 1330 µM; in the series on human complement (from FIG. 3 plot, read-out: IH50 (the source's name)) it was about 900 µM; in series [2] (PHA stimulated (FIG. 4), read-out: Half-maximal inhibition of PBL proliferation), about 500 µM; in series [2] (Table IX, PHA stimulation, 72 h, read-out: IP50 PHA-stimulated PBL), 400 µM. Moreover, the IC50 in series [2] (Table IX, anti-CD3 (OKT-3) stimulation, 72 h, read-out: IP50 OKT-3-stimulated PBL) stood at 500 µM. For the same molecule, the viability – broadly, the share of living cells, or the viability signal relative to a control – at 400 µM in series [1] (0.4 mM) came out at 95%. Also, the viability at 800 µM in series [1] (0.8 mM) came out at 95%. The same molecule registered a viability at 1600 µM in series [1] (1.6 mM) of 95%. The molecule also showed a viability at 3200 µM in series [1] (3.2 mM) of 76%. Moreover, in series [1] (6.4 mM), the viability at 6400 µM was determined as 5%. Moreover, in series [3], the “inhibition of CHO cell proliferation” value was “no inhibition”. In series [3] (1.8 mM, CHO cells), the “incorporated 3H-thymidine” value was 52549 (±6272) CPM. Further, the “PBL viability by trypan blue exclusion” value in series [4] is “viable”.
